Test results as given in publication PMC5970136, “Molecular basis of dimer formation during the biosynthesis of benzofluorene-containing atypical angucyclines” (Nature Communications, 2018).
In brackets after ≈: the same amount, converted by molar mass.

Test system: T1, B. subtilis SCSIO BS01
T1 construct: SCSIO BS01
Test: microbe, parasite or virus in culture
Design: broth microdilution in Mueller-Hinton broth, minimum inhibitory concentration
Settings: Bacillus subtilis, SCSIOBS01, 18 h
Method: (§1) Antimicrobial activities were measured against seven indicator strains (Staphylococcus aureus ATCC 29213, Escherichia coli ATCC 25922, Enterococcus faecalis ATCC 29212, Acinetobacter baumannii ATCC 19606, Bacillus subtilis SCSIO BS01, Micrococcus Luteus SCSIO ML01, and methicillin resistant S. aureus ATCC 43300) by the broth microdilution method[8],[9]. Bacterial strains were grown to achieve an optical absorbance of 0.04−0.06 at 600 nm on a rotary shaker at 37 °C. […] The minimum inhibitory concentration (MIC) values were measured after 18 h cultivation. Each compound was tested in triplicates with TMP as a positive control. […] A proof of concept experiment was carried out in which FST D (7) was incubated with the antibacterial agent trimethoprim (TMP, 34). Two products 35 and 36 isolated from this reaction (Fig. 6a, Supplementary Fig. 128) were structurally characterized as hybrids of TMP and FST (Fig. 6a; Supplementary Figs. 129−142). Similar results were obtained upon incubation of TMP (34) with compound 27, but not with compound 28 (Supplementary Fig. 143). These findings again support the hypothesis that spontaneous formation of a p-QM precursor is a prerequisite for the production of FST hybrids.

Row | SMILES | MIC [µg/mL]
1 | Cc1ccc2c3c(c(O)cc2c1O)-c1c(O)cccc1C3=O [compound 12, isoprefluostatin] | 32 (≈ 109 µM)
2 | Cc1cc(O)cc(O)c1C(=O)c1c(O)cccc1Cc1cc2c(c(=O)o1)C1c3c(cc(O)c4c3C(=O)c3cccc(O)c3-4)C(=O)C(C)(O2)C1O (centres unmarked) [compound 16, difluostatin C] | > 64
3 | CC12OC1C(O)c1c(cc(O)c3c1C(=O)c1c(C4c5c(cc(O)c6c5C(=O)c5cccc(O)c5-6)C(=O)C5(C)OC45)ccc(O)c1-3)C2=O (centres unmarked) [compound 24, difluostatin F] | > 64
4 | Cc1ccc2c(c1)OC1(C)C(=O)c3cc(O)c4c(c3C(N2)C1O)C(=O)c1cccc(O)c1-4 (centres unmarked) [compound 33, 33] | > 64
5 | CC(=O)NN1c2c(c3c(c4c2C(=O)C(C)(O)C=C4)C(=O)c2cccc(O)c2-3)OC2C1c1c(cc(O)c3c1C(=O)c1cccc(O)c1-3)C(=O)C2(C)O (centres unmarked) [compound 15, difluostatin B] | > 64
6 | COc1cc(Cc2cnc(N)nc2N)cc(OC)c1OC [Trimethoprim] | 0.5 (≈ 1.72 µM)
7 | C[C@]12O[C@H]1[C@H](Nc1ccc(C(=O)O)cc1)c1c(cc(O)c3c1C(=O)c1cccc(O)c1-3)C2=O [compound 14, FST S] | > 64
8 | COC1c2c(cc(O)c3c2C(=O)c2c(C4c5c(cc(O)c6c5C(=O)c5cccc(O)c5-6)C(=O)C5(C)OC45)ccc(O)c2-3)C(=O)C2(C)OC12 (centres unmarked) [compound 26, difluostatin H] | 64 (≈ 99.3 µM)

Test system: T2, E. coli ATCC 25922
T2 construct: ATCC 25922
Test: microbe, parasite or virus in culture
Design: broth microdilution in Mueller-Hinton broth, minimum inhibitory concentration
Settings: Escherichia coli, ATCC25922, 18 h
Method: as §1

Row | SMILES | MIC [µg/mL]
9 | Cc1ccc2c3c(c(O)cc2c1O)-c1c(O)cccc1C3=O [compound 12, isoprefluostatin] | > 64
10 | Cc1cc(O)cc(O)c1C(=O)c1c(O)cccc1Cc1cc2c(c(=O)o1)C1c3c(cc(O)c4c3C(=O)c3cccc(O)c3-4)C(=O)C(C)(O2)C1O (centres unmarked) [compound 16, difluostatin C] | > 64
11 | CC12OC1C(O)c1c(cc(O)c3c1C(=O)c1c(C4c5c(cc(O)c6c5C(=O)c5cccc(O)c5-6)C(=O)C5(C)OC45)ccc(O)c1-3)C2=O (centres unmarked) [compound 24, difluostatin F] | > 64
12 | Cc1ccc2c(c1)OC1(C)C(=O)c3cc(O)c4c(c3C(N2)C1O)C(=O)c1cccc(O)c1-4 (centres unmarked) [compound 33, 33] | > 64
13 | CC(=O)NN1c2c(c3c(c4c2C(=O)C(C)(O)C=C4)C(=O)c2cccc(O)c2-3)OC2C1c1c(cc(O)c3c1C(=O)c1cccc(O)c1-3)C(=O)C2(C)O (centres unmarked) [compound 15, difluostatin B] | > 64
14 | COc1cc(Cc2cnc(N)nc2N)cc(OC)c1OC [Trimethoprim] | 0.25 (≈ 0.861 µM)
15 | C[C@]12O[C@H]1[C@H](Nc1ccc(C(=O)O)cc1)c1c(cc(O)c3c1C(=O)c1cccc(O)c1-3)C2=O [compound 14, FST S] | > 64
16 | COC1c2c(cc(O)c3c2C(=O)c2c(C4c5c(cc(O)c6c5C(=O)c5cccc(O)c5-6)C(=O)C5(C)OC45)ccc(O)c2-3)C(=O)C2(C)OC12 (centres unmarked) [compound 26, difluostatin H] | > 64

Test system: T3, A. baumannii ATCC 19606
T3 construct: ATCC 19606
Test: microbe, parasite or virus in culture
Design: broth microdilution in Mueller-Hinton broth, minimum inhibitory concentration
Settings: Acinetobacter baumannii, ATCC19606, 18 h
Method: as §1

Row | SMILES | MIC [µg/mL]
17 | Cc1ccc2c3c(c(O)cc2c1O)-c1c(O)cccc1C3=O [compound 12, isoprefluostatin] | > 64
18 | Cc1cc(O)cc(O)c1C(=O)c1c(O)cccc1Cc1cc2c(c(=O)o1)C1c3c(cc(O)c4c3C(=O)c3cccc(O)c3-4)C(=O)C(C)(O2)C1O (centres unmarked) [compound 16, difluostatin C] | > 64
19 | CC12OC1C(O)c1c(cc(O)c3c1C(=O)c1c(C4c5c(cc(O)c6c5C(=O)c5cccc(O)c5-6)C(=O)C5(C)OC45)ccc(O)c1-3)C2=O (centres unmarked) [compound 24, difluostatin F] | > 64
20 | Cc1ccc2c(c1)OC1(C)C(=O)c3cc(O)c4c(c3C(N2)C1O)C(=O)c1cccc(O)c1-4 (centres unmarked) [compound 33, 33] | > 64
21 | CC(=O)NN1c2c(c3c(c4c2C(=O)C(C)(O)C=C4)C(=O)c2cccc(O)c2-3)OC2C1c1c(cc(O)c3c1C(=O)c1cccc(O)c1-3)C(=O)C2(C)O (centres unmarked) [compound 15, difluostatin B] | > 64
22 | COc1cc(Cc2cnc(N)nc2N)cc(OC)c1OC [Trimethoprim] | 64 (≈ 220 µM)
23 | C[C@]12O[C@H]1[C@H](Nc1ccc(C(=O)O)cc1)c1c(cc(O)c3c1C(=O)c1cccc(O)c1-3)C2=O [compound 14, FST S] | > 64
24 | COC1c2c(cc(O)c3c2C(=O)c2c(C4c5c(cc(O)c6c5C(=O)c5cccc(O)c5-6)C(=O)C5(C)OC45)ccc(O)c2-3)C(=O)C2(C)OC12 (centres unmarked) [compound 26, difluostatin H] | > 64

Test system: T4, M. Luteus SCSIO ML01
T4 construct: SCSIO ML01
Test: microbe, parasite or virus in culture
Design: broth microdilution in Mueller-Hinton broth, minimum inhibitory concentration
Settings: Micrococcus luteus, 18 h
Method: as §1

Row | SMILES | MIC [µg/mL]
25 | Cc1ccc2c3c(c(O)cc2c1O)-c1c(O)cccc1C3=O [compound 12, isoprefluostatin] | 64 (≈ 219 µM)
26 | Cc1cc(O)cc(O)c1C(=O)c1c(O)cccc1Cc1cc2c(c(=O)o1)C1c3c(cc(O)c4c3C(=O)c3cccc(O)c3-4)C(=O)C(C)(O2)C1O (centres unmarked) [compound 16, difluostatin C] | > 64
27 | CC12OC1C(O)c1c(cc(O)c3c1C(=O)c1c(C4c5c(cc(O)c6c5C(=O)c5cccc(O)c5-6)C(=O)C5(C)OC45)ccc(O)c1-3)C2=O (centres unmarked) [compound 24, difluostatin F] | > 64
28 | Cc1ccc2c(c1)OC1(C)C(=O)c3cc(O)c4c(c3C(N2)C1O)C(=O)c1cccc(O)c1-4 (centres unmarked) [compound 33, 33] | > 64
29 | CC(=O)NN1c2c(c3c(c4c2C(=O)C(C)(O)C=C4)C(=O)c2cccc(O)c2-3)OC2C1c1c(cc(O)c3c1C(=O)c1cccc(O)c1-3)C(=O)C2(C)O (centres unmarked) [compound 15, difluostatin B] | > 64
30 | COc1cc(Cc2cnc(N)nc2N)cc(OC)c1OC [Trimethoprim] | 1 (≈ 3.44 µM)
31 | C[C@]12O[C@H]1[C@H](Nc1ccc(C(=O)O)cc1)c1c(cc(O)c3c1C(=O)c1cccc(O)c1-3)C2=O [compound 14, FST S] | > 64
32 | COC1c2c(cc(O)c3c2C(=O)c2c(C4c5c(cc(O)c6c5C(=O)c5cccc(O)c5-6)C(=O)C5(C)OC45)ccc(O)c2-3)C(=O)C2(C)OC12 (centres unmarked) [compound 26, difluostatin H] | > 64

Test system: T5, E. faecalis ATCC 29212
T5 construct: ATCC 29212
Test: microbe, parasite or virus in culture
Design: broth microdilution in Mueller-Hinton broth, minimum inhibitory concentration
Settings: Enterococcus faecalis, ATCC29212, 18 h
Method: as §1

Row | SMILES | MIC [µg/mL]
33 | Cc1ccc2c3c(c(O)cc2c1O)-c1c(O)cccc1C3=O [compound 12, isoprefluostatin] | > 64
34 | Cc1cc(O)cc(O)c1C(=O)c1c(O)cccc1Cc1cc2c(c(=O)o1)C1c3c(cc(O)c4c3C(=O)c3cccc(O)c3-4)C(=O)C(C)(O2)C1O (centres unmarked) [compound 16, difluostatin C] | > 64
35 | CC12OC1C(O)c1c(cc(O)c3c1C(=O)c1c(C4c5c(cc(O)c6c5C(=O)c5cccc(O)c5-6)C(=O)C5(C)OC45)ccc(O)c1-3)C2=O (centres unmarked) [compound 24, difluostatin F] | > 64
36 | Cc1ccc2c(c1)OC1(C)C(=O)c3cc(O)c4c(c3C(N2)C1O)C(=O)c1cccc(O)c1-4 (centres unmarked) [compound 33, 33] | > 64
37 | CC(=O)NN1c2c(c3c(c4c2C(=O)C(C)(O)C=C4)C(=O)c2cccc(O)c2-3)OC2C1c1c(cc(O)c3c1C(=O)c1cccc(O)c1-3)C(=O)C2(C)O (centres unmarked) [compound 15, difluostatin B] | > 64
38 | COc1cc(Cc2cnc(N)nc2N)cc(OC)c1OC [Trimethoprim] | 2 (≈ 6.89 µM)
39 | C[C@]12O[C@H]1[C@H](Nc1ccc(C(=O)O)cc1)c1c(cc(O)c3c1C(=O)c1cccc(O)c1-3)C2=O [compound 14, FST S] | > 64
40 | COC1c2c(cc(O)c3c2C(=O)c2c(C4c5c(cc(O)c6c5C(=O)c5cccc(O)c5-6)C(=O)C5(C)OC45)ccc(O)c2-3)C(=O)C2(C)OC12 (centres unmarked) [compound 26, difluostatin H] | > 64

Test system: T6, Staphylococcus aureus MRSA ATCC 43300
T6 construct: ATCC 43300 (methicillin resistant)
Test: microbe, parasite or virus in culture
Design: broth microdilution in Mueller-Hinton broth, minimum inhibitory concentration
Settings: 18 h
Method: as §1

Row | SMILES | MIC [µg/mL]
41 | Cc1ccc2c3c(c(O)cc2c1O)-c1c(O)cccc1C3=O [compound 12, isoprefluostatin] | 64 (≈ 219 µM)
42 | Cc1cc(O)cc(O)c1C(=O)c1c(O)cccc1Cc1cc2c(c(=O)o1)C1c3c(cc(O)c4c3C(=O)c3cccc(O)c3-4)C(=O)C(C)(O2)C1O (centres unmarked) [compound 16, difluostatin C] | > 64
43 | CC12OC1C(O)c1c(cc(O)c3c1C(=O)c1c(C4c5c(cc(O)c6c5C(=O)c5cccc(O)c5-6)C(=O)C5(C)OC45)ccc(O)c1-3)C2=O (centres unmarked) [compound 24, difluostatin F] | > 64
44 | Cc1ccc2c(c1)OC1(C)C(=O)c3cc(O)c4c(c3C(N2)C1O)C(=O)c1cccc(O)c1-4 (centres unmarked) [compound 33, 33] | > 64
45 | CC(=O)NN1c2c(c3c(c4c2C(=O)C(C)(O)C=C4)C(=O)c2cccc(O)c2-3)OC2C1c1c(cc(O)c3c1C(=O)c1cccc(O)c1-3)C(=O)C2(C)O (centres unmarked) [compound 15, difluostatin B] | > 64
46 | COc1cc(Cc2cnc(N)nc2N)cc(OC)c1OC [Trimethoprim] | 0.5 (≈ 1.72 µM)
47 | C[C@]12O[C@H]1[C@H](Nc1ccc(C(=O)O)cc1)c1c(cc(O)c3c1C(=O)c1cccc(O)c1-3)C2=O [compound 14, FST S] | > 64
48 | COC1c2c(cc(O)c3c2C(=O)c2c(C4c5c(cc(O)c6c5C(=O)c5cccc(O)c5-6)C(=O)C5(C)OC45)ccc(O)c2-3)C(=O)C2(C)OC12 (centres unmarked) [compound 26, difluostatin H] | > 64

Test system: T7, S. aureus ATCC 29213
T7 construct: ATCC 29213
Test: microbe, parasite or virus in culture
Design: broth microdilution in Mueller-Hinton broth, minimum inhibitory concentration
Settings: Staphylococcus aureus, ATCC29213, 18 h
Method: as §1

Row | SMILES | MIC [µg/mL]
49 | Cc1ccc2c3c(c(O)cc2c1O)-c1c(O)cccc1C3=O [compound 12, isoprefluostatin] | 64 (≈ 219 µM)
50 | Cc1cc(O)cc(O)c1C(=O)c1c(O)cccc1Cc1cc2c(c(=O)o1)C1c3c(cc(O)c4c3C(=O)c3cccc(O)c3-4)C(=O)C(C)(O2)C1O (centres unmarked) [compound 16, difluostatin C] | > 64
51 | CC12OC1C(O)c1c(cc(O)c3c1C(=O)c1c(C4c5c(cc(O)c6c5C(=O)c5cccc(O)c5-6)C(=O)C5(C)OC45)ccc(O)c1-3)C2=O (centres unmarked) [compound 24, difluostatin F] | > 64
52 | Cc1ccc2c(c1)OC1(C)C(=O)c3cc(O)c4c(c3C(N2)C1O)C(=O)c1cccc(O)c1-4 (centres unmarked) [compound 33, 33] | > 64
53 | CC(=O)NN1c2c(c3c(c4c2C(=O)C(C)(O)C=C4)C(=O)c2cccc(O)c2-3)OC2C1c1c(cc(O)c3c1C(=O)c1cccc(O)c1-3)C(=O)C2(C)O (centres unmarked) [compound 15, difluostatin B] | > 64
54 | COc1cc(Cc2cnc(N)nc2N)cc(OC)c1OC [Trimethoprim] | 0.5 (≈ 1.72 µM)
55 | C[C@]12O[C@H]1[C@H](Nc1ccc(C(=O)O)cc1)c1c(cc(O)c3c1C(=O)c1cccc(O)c1-3)C2=O [compound 14, FST S] | > 64
56 | COC1c2c(cc(O)c3c2C(=O)c2c(C4c5c(cc(O)c6c5C(=O)c5cccc(O)c5-6)C(=O)C5(C)OC45)ccc(O)c2-3)C(=O)C2(C)OC12 (centres unmarked) [compound 26, difluostatin H] | > 64
